Measurements published in patent publication US5166200A, “Treatment of endometriosis” (Snow Brand Milk Products Company, Limited, priority 1990, dated 1992).
“Also recorded” adds a separate entry of the source. Where two headings read alike, the source gives them in different places.

Assays:
estradiol (Ez) [1] = assay: Test (1) serum estradiol (Ez) reduction, subcutaneous administration, PMSG-treated rats, radioimmunoassay; assay type: in vivo, SD strain female rats; details: for Ez-reducing effect: compared with the control group, in both cases of subcutaneous administration (50 mg/kg) and oral administration (100 mg/kg, Test (2)); for Ez concentration in serum (average): subcutaneous, 50 mg/kg, 3 hours after administration, PMSG-treated rats, 5 per group, control (HPC) 0.572
Procedure: (§1) In this Test Example, effects of administration of 6-OA and 6-enol ester compounds thereof on estradiol (Ez) reduction were examined.
20 SD strain female rats of 8-week old were used as test animals. They were divided into four groups each consisting of 5 rats. To all the rats was subcutaneously injected pregnant mare serum gonatropin (PMSG) in an amount of 100 IU/body once every other day (6 times in total). In the beforenoon of the next day of the final (6th) administration of PMSG, 0.5 ml of a solvent, 50 mg/kg of 6-OA, 50 mg/kg of 6-OAp and 50 mg/kg of 6-OAb were subcutaneously administered to group I (control group), group II, group III and group IV, respectively.
After 3 hours from the administration, the rats were subjected to abdomen opening under etherization and then to exsanguination from the main vein. The blood collected from each rat was subjected to serum separation, and the Ez in the serum was determined by radioimmunoassay.
A physiological saline solution containing 0.3% of hydroxy propyl cellulose (HPC) was used as the solvent. 6-OA, 6-OAp and 6-OAb were each suspended in the solvent in such a concentration that the administration amount of the resulting suspension per rat became 0.5 ml.

estradiol (Ez) [2] = assay: Test (2) serum estradiol (Ez) reduction, oral administration, PMSG-treated rats, radioimmunoassay; assay type: in vivo, SD strain female rats; details: 100 mg/kg, 6 hours after administration, 5 per group, control (HPC) 0.522
Procedure: as §1
The type, age, number and grouping of test animals were the same as in Test (1).
All of the rats were subcutaneously injected with PMSG, in the same manner as in Test (1), in an amount of 100 IU/body once every other day (6 times in total).
Before noon of the next day of the final (6th) administration of PMSG, 0.5 ml of a solvent, 100 mg/kg of 6-OA, 100 mg/kg of 6-OAp and 100 mg/kg of 6-OAb were orally administered to group I (control group), group II, group III and group IV, respectively.
Aftr 6 hours from the administration, the rats were subjected to exsanguination. The blood collected from each rat was subjected to serum separation, and the Ez in the serum was determined by radioimmunoassay.
The solvent used was the same as in Test (1). 6-OA, 6-OAp and 6-OAb were each suspended in the solvent in such a concentration that the administration amount of the resulting suspension per rat became 0.5 ml.

[3] = system: aromatase (a steroidogenesis enzyme); details: known; Japanese Patent Application Laid-Open Nos. 192794/1988, 131193/1989; cited from earlier work
[4] = animal toxicity tests (LD50)
[5] = system: experimental endometriosis; assay: effect on model rats of endometriosis (cysts in endometrium autoplanted under renal capsule); assay type: in vivo, SD strain female rats; details: 100 mg/kg/day
Text: In this Test example, effect of administration of 6-OAp on model rats of endometriosis was examined.
SD strain female rats of 7-week old weighing 170-210 g were used as test animals. In these rats, an endometrial segment (about 5 mm×5 mm) was removed from the left uterine horn and autoplanted under the left renal capsule, and formation of cysts in the transplanted endometrium was examined. Those rats which had developed cysts of 0.5-2.0 mm in height in the transplanted endometrium, were used for test.
The rats were divided into three groups. To group I (control group) was orally administered a physiological saline solution containing 0.3% of hydroxy propyl cellulose (HPC) daily in an amount of 0.5 ml/day. To group II was orally administered 6-OAp daily in an amount of 100 mg/kg/day. In this case, 6-OAp was suspended in a physiological saline solution containing 0.3% of HPC in such a concentration that the administration amount of the resulting suspension per rat became 0.5 ml. Group III (positive control) was subjected to ovary removal.
Each rat was subjected to abdomen opening after 3 weeks from the start of administration or after the ovary removal and examined for the presence of cysts.
Chi-square test was used for the statistical analysis of the test data obtained.

[6] = cited from earlier work

| SMILES | Ez-reducing effect (estradiol (Ez) [1]) | Ez concentration in serum (average) (estradiol (Ez) [1]) | Ez concentration in serum (average) (estradiol (Ez) [2]) | further results |
| --- | --- | --- | --- | --- |
| C[C@]12CCC(=O)C=C1C(=O)C[C@@H]1[C@@H]2CC[C@]2(C)C(=O)CC[C@@]12O [6-OA, 14α-Hydroxy-4-androstene-3,6,17-trione] | strong Ez-reducing effect | 0.262 ng/mL | 0.291 ng/mL | aromatase-inhibitory activity [3]: strong aromatase-inhibitory activity; toxicity ([4]; animal tests): very low toxicity; LD50 ([4]; in vivo): > 2000 mg/kg |
| C[C@]12CCC(=O)C=C1C(OC(=O)c1ccccc1)=C[C@@H]1[C@@H]2CC[C@]2(C)C(=O)CC[C@@]12O [6-OAb] | strong Ez-reducing effect | 0.390 ng/mL | 0.422 ng/mL |  |
| CCC(=O)OC1=C[C@@H]2[C@H](CC[C@]3(C)C(=O)CC[C@@]23O)[C@@]2(C)CCC(=O)C=C12 [6-OAp, 14α-Hydroxy-androsta-4,6-diene-3,17-dione-6-propionate] | strong Ez-reducing effect; also recorded: stronger Ez-reducing effect than the 6-OA group and the 6-OAb group | 0.230 ng/mL | 0.226 ng/mL | Disappearance (of cysts) ([5]; oral, 3 weeks, control 9%, ovary-removed 100, significant at 5% level relative to control group (Chi-square)): 41%; Cysts absent ([5]; oral, 3 weeks, total 22 rats, control 2 of 22, significant at 5% level relative to control (Chi-square)): 9 rats; Cysts present ([5]; oral, 3 weeks, total 22 rats, control 20 of 22): 13 rats; effect on experimental endometriosis of rats ([5]; orally administered daily for 3 weeks): effective |
| CCNC(=O)[C@@H]1CCCN1C(=O)[C@H](CCCNC(=N)N)NC(=O)[C@H](CC(C)C)NC(=O)[C@@H](COC(C)(C)C)NC(=O)[C@H](Cc1ccc(O)cc1)NC(=O)[C@H](CO)NC(=O)[C@H](Cc1c[nH]c2ccccc12)NC(=O)[C@H](Cc1cnc[nH]1)NC(=O)[C@@H]1CCC(=O)N1 [buserelin] |  |  |  | side effects ([6]; treatment of endometriosis, prior art): hyposexuality, hot flushes and the like |
| C#C[C@]1(O)CC[C@H]2[C@@H]3CCC4=Cc5oncc5C[C@]4(C)[C@H]3CC[C@@]21C [danazol] |  |  |  | side effects ([6]; in vivo): dyshepatia, masculinization and the like |
